Four substances from US7371734B2, “Oligonucleotide compositions and their use for the modulation of immune responses” (Bioniche Life Sciences Inc., priority 2002, dated 2008) can be followed below.

Marks after values point to notes of the source that are not given here.

Type in all cases: cell-based
Data set [1] deals with Human dendritic cells. Put plainly: CD86 levels at the DC cell surface (flow cytometry). Conditions: 100 μg, 48 hours. The method, then: (§1) Human dendritic cells were obtained from Clonetics (San Diego, Calif., USA) and were cultured in the medium recommended by Clonetics. DC were obtained from three different individuals (see Table 1). Major histocompatability typing was performed on each of these individuals and several of the HLA (human leukocyte antigens) types are shown.
DC from individuals B and C were seeded in 1.0 ml at 1.0×10^5 cells/ml in 6-well flat-bottomed tissue culture plates for 48 hours with 100 μg of 6 base N1A, N1B, N2A, N2B, N3A, N3B, N4A, N4B, N5A, N5B, N6A, N6B, N7A or N7B polynucleotides. The level of CD86 at the cell surface was determined after 48 hours of incubation by flow cytometry using a PE-conjugated monoclonal antibody directed to CD86 (Serotec) and analyzed by CELLQuest Pro. Results are expressed as the percentage of CD86^hi DC following treatment.

For data set [2], the system named is Human dendritic cells. Nature of the data set: Induction of IL-12 production by DC (ELISA). Conditions: 100 μg, 48 hours. The method, then:
as §1
DC were seeded in 1.0 ml at 1.0×10^5 cells/ml in 6-well flat-bottomed tissue culture plates for 48 hours with 100 μg of 6 base N1A, N1B, N2A, N2B, N3A, N3B, N4A, N4B, N5A, N5B, N6A, N6B, N7A or N7B polynucleotides. Production of IL-12 was determined in 100 μl of culture supernatant using a commercial ELISA (BioSource) after 48 hours of incubation. Results are expressed as the “fold” (x) increase in IL-12 production by treated DC compared to control cells.
(ELISA stands for enzyme-linked immunosorbent assay.)

Data set [3] has as its system Human dendritic cells. Put plainly: Increase in cell size and granularity of DC (flow cytometry). Conditions: 100 μg polynucleotide, 48 hours. The method, then:
as §1
DC were seeded in 1.0 ml at 1.0×10^5 cells/ml in 6-well flat-bottomed tissue culture plates for 48 hours with 100 μg of 6 base N1A, N1B, N2A, N2B, N3A, N3B, N4A, N4B, N5A, N5B, N6A, N6B, N7A or N7B polynucleotides. Cell size (FCS: forward side scatter) and granularity (S SC: side light scatter) were determined by flow cytometry using a FACSCalibur and analyzed using the CELLQuest Pro software (both from Becton-Dickinson, San Diego, Calif., USA). Percentage of DC showing a FCS>500 units and a SSC>400 units have been determined after treatment with 3-OH, 5-OH polynucleotides for DC isolated from three different individuals.
For orientation: A flow cytometer gives signals particle by particle.

Data set [4] deals with Human dendritic cells. Nature of the data set: CD40 levels at the DC cell surface (flow cytometry). Particulars: 100 μg, 48 hours. The method, then: as §1
DC from individuals B and C were seeded in 1.0 ml at 1.0×10^5 cells/ml in 6-well flat-bottomed tissue culture plates for 48 hours with 100 μg of 6 base N1A, N1B, N2A, N2B, N3A, N3B, N4A, N4B, N5A, N5B, N6A, N6B, N7A or N7B polynucleotides. The level of CD40 at the cell surface was determined after 48 hours of incubation by flow cytometry (FACSCalibur system) using a FITC-conjugated monoclonal antibody directed to CD40 and analyzed by CELLQuest Pro (all from Becton Dickinson). Results are expressed as the percentage of CD40^hi DC following treatment. The term “CD40^hi” refers to a population of cells identified by flow cytometry as having higher than baseline expression of CD40.

Data set [5] relates to Human dendritic cells. Nature of the data set: Induction of IFN-gamma production by DC (ELISA). Particulars: 100 μg, 48 hours. On the procedure: as §1
DC were seeded in 1.0 ml at 1.0×10^5 cells/ml in 6-well flat-bottomed tissue culture plates for 48 hours with 100 μg of6 base N1A, N1B, N2A, N2B, N3A, N3B, N4A, N4B, N5A, N5B, N6A, N6B, N7A or N7B polynucleotides. Production of IFN-gamma was determined in 100 μl of culture supernatant using a commercial ELISA (BioSource) after 48 hours of incubation. Results are expressed as the “fold” (x) increase in IFN-gamma production by treated DC compared to control cells.

The subject of data set [6] is Human dendritic cells. Put plainly: CD80 levels at the DC cell surface (flow cytometry). Particulars: 100 μg, 48 hours. The method, then:
as §1
DC from individuals B and C were seeded in 1.0 ml at 1.0×10^5 cells/ml in 6-well flat-bottomed tissue culture plates for 48 hours with 100 μg of 6 base N1A, N1B, N2A, N2B, N3A, N3B, N4A, N4B, N5A, N5B, N6A, N6B, N7A or N7B polynucleotides. The level of CD80 at the cell surface was determined after 48 hours of incubation by flow cytometry using a FITC-conjugated monoclonal antibody directed to CD80 (Serotec, Oxford, U.K.) and analyzed by CELLQuest. Results are expressed as the percentage of CD80^hi DC following treatment.

Data set [7] deals with Human dendritic cells. Nature of the data set: Induction of IL-1beta production by DC (ELISA). Conditions: 100 μg, 48 hours. On the procedure:
as §1
DC were seeded in 1.0 ml at 1.0×10^5 cells/ml in 6-well flat-bottomed tissue culture plates for 48 hours with 100 μg of 6 base N1A, N1B, N2A, N2B, N3A, N3B, N4A, N4B, N5A, N5B, N6A, N6B, N7A or N7B polynucleotides. Production of IL-1beta was determined in 100 μl of culture supernatant using a commercial ELISA (BioSource, Camarillo, Calif., USA) after 48 hours of incubation. Results are expressed as the “fold” (x) increase in IL-1beta production by treated DC compared to control cells.

The subject of data set [8] is Human dendritic cells. Nature of the data set: MHC-II levels at the DC cell surface (flow cytometry). Conditions: DC from individual B; 100 μg, 48 hours. The method, then: as §1
DC from individual B were seeded in 1.0 ml at 1.0×10^5 cells/ml in 6-well flat-bottomed tissue culture plates for 48 hours with 100 μg of 6 base N1A, N1B, N2A, N2B, N3A, N3B, N5A, N5B, N6A, N6B, N7A or N7B polynucleotides. The level of MHC II at the cell surface was determined after 48 hours of incubation by flow cytometry using a FITC-conjugated monoclonal antibody directed to MHC II (Serotec) and analyzed by CELLQuest Pro. Results are expressed as the percentage of MHC II^hi DC following treatment.

For the substance “5′GGCCGG3′ [N4B] (DNA, all phosphorothioate, methylation of C not given here)”, in the data set with Human dendritic cells [1] (DC from individual C), the “The percentage of CD86^hi DC following treatment” value was determined as 32%. Also, the “IL-12 production by DC (fold increase compared to untreated DC)” value with Human dendritic cells [2] (DC isolated from individual A) came to 1.3 fold; in the data set with Human dendritic cells [2] (DC isolated from individual C) it was 2.6 fold. Besides, the entries for the “Percentage of DC showing a FCS > 500 units and a SSC > 400 units” value with Human dendritic cells [3] (DC isolated from individual A) and with Human dendritic cells [3] (DC isolated from individual C) were 4% and 32%, respectively. The “The percentage of CD40^hi DC following treatment” value in the data set with Human dendritic cells [4] (DC from individual C) is listed as 16%. In addition, the “IFN-gamma production by DC (fold increase compared to untreated DC)” value in the data set on Human dendritic cells [5] (DC isolated from individual A) and with Human dendritic cells [5] (DC isolated from individual C) was 1.0 fold throughout. Moreover, the “The percentage of CD80^hi DC following treatment” value with Human dendritic cells [6] (DC from individual B) is 9%; with Human dendritic cells [6] (DC from individual C), 13%. For the same substance, the “IL-1beta production by DC (fold increase compared to untreated DC)” value with Human dendritic cells [7] (DC isolated from individual A) and in the data set with Human dendritic cells [7] (DC isolated from individual C) was 1.0 fold in each case.
With “5′GGCCGG3′ [N4A] (DNA, all phosphodiester, methylation of C not given here)”, in the data set on Human dendritic cells [1] (DC from individual C), the “The percentage of CD86^hi DC following treatment” value was found to be 23%. For the same substance, the “IL-12 production by DC (fold increase compared to untreated DC)” value in the data set with Human dendritic cells [2] (DC isolated from individual A) was 1.2 fold; in the data set on Human dendritic cells [2] (DC isolated from individual C) it was 1.0 fold. In addition, the “Percentage of DC showing a FCS > 500 units and a SSC > 400 units” value in the data set with Human dendritic cells [3] (DC isolated from individual A) is 4%; in the data set on Human dendritic cells [3] (DC isolated from individual C) it was 19%. For the same substance, the “The percentage of CD40^hi DC following treatment” value with Human dendritic cells [4] (DC from individual C) stood at 16%. Also, the “IFN-gamma production by DC (fold increase compared to untreated DC)” value in the data set on Human dendritic cells [5] (DC isolated from individual A) and in the data set with Human dendritic cells [5] (DC isolated from individual C) was 1.0 fold throughout. In addition, the “The percentage of CD80^hi DC following treatment” value is 11% in the data set on Human dendritic cells [6] (DC from individual B) and 21** % with Human dendritic cells [6] (DC from individual C). In addition, the “IL-1beta production by DC (fold increase compared to untreated DC)” value in the data set with Human dendritic cells [7] (DC isolated from individual A) came out at 0.9 fold; in the data set with Human dendritic cells [7] (DC isolated from individual C), 1.0 fold.
For “5′GGGCGG3′ [N7B] (DNA, all phosphorothioate, methylation of C not given here)”, in the data set with Human dendritic cells [1] (DC from individual C), the “The percentage of CD86^hi DC following treatment” value came to 34%. Besides, the figures for the “IL-12 production by DC (fold increase compared to untreated DC)” value in the data set with Human dendritic cells [2] (DC isolated from individual A) and in the data set with Human dendritic cells [2] (DC isolated from individual C) were 1.8 fold and 1.0 fold, respectively. The “Percentage of DC showing a FCS > 500 units and a SSC > 400 units” value in the data set with Human dendritic cells [3] (DC isolated from individual A) is given as 16%; in the data set on Human dendritic cells [3] (DC isolated from individual C), 31%. Besides, the “The percentage of CD40^hi DC following treatment” value with Human dendritic cells [4] (DC from individual C) was determined as 18%. Moreover, the “IFN-gamma production by DC (fold increase compared to untreated DC)” value with Human dendritic cells [5] (DC isolated from individual A) and in the data set on Human dendritic cells [5] (DC isolated from individual C) was 1.1 fold throughout. Besides, the “The percentage of MHC-II^hi DC following treatment” value in the data set on Human dendritic cells [8] is 31** %. For the same substance, the “The percentage of CD80^hi DC following treatment” value in the data set with Human dendritic cells [6] (DC from individual B) and in the data set with Human dendritic cells [6] (DC from individual C) was 5% each time. Moreover, the figures for the “IL-1beta production by DC (fold increase compared to untreated DC)” value in the data set with Human dendritic cells [7] (DC isolated from individual A) and with Human dendritic cells [7] (DC isolated from individual C) were 1.1 fold and 0.9 fold, respectively.
As to 5′ GTGTGT3′ [N1B], the figures for the “The percentage of CD86^hi DC following treatment” value in the data set on Human dendritic cells [1] (DC from individual B) and in the data set on Human dendritic cells [1] (DC from individual C) were 19% and 27%, respectively. The “IL-12 production by DC (fold increase compared to untreated DC)” value in the data set on Human dendritic cells [2] (DC isolated from individual A) is 1.5 fold; in the data set on Human dendritic cells [2] (DC isolated from individual B), 1.3 fold; in the data set on Human dendritic cells [2] (DC isolated from individual C), 1.1 fold. Further, the “Percentage of DC showing a FCS > 500 units and a SSC > 400 units” value in the data set with Human dendritic cells [3] (DC isolated from individual A) is on record as 5%; in the data set with Human dendritic cells [3] (DC isolated from individual B) it was 17%; in the data set on Human dendritic cells [3] (DC isolated from individual C), 25%. The “The percentage of CD40^hi DC following treatment” value in the data set with Human dendritic cells [4] (DC from individual B) is listed as 31** %; with Human dendritic cells [4] (DC from individual C) it was 18%. For the same substance, the “IFN-gamma production by DC (fold increase compared to untreated DC)” value is reported as 0.9 fold with Human dendritic cells [5] (DC isolated from individual A), 1.0 fold in the data set on Human dendritic cells [5] (DC isolated from individual B) and 1.0 fold in the data set with Human dendritic cells [5] (DC isolated from individual C). Moreover, in the data set with Human dendritic cells [8], the “The percentage of MHC-II^hi DC following treatment” value stood at 7%. In addition, the “The percentage of CD80^hi DC following treatment” value was determined as 11% in the data set with Human dendritic cells [6] (DC from individual B) and 13% in the data set on Human dendritic cells [6] (DC from individual C). In addition, the “IL-1beta production by DC (fold increase compared to untreated DC)” value with Human dendritic cells [7] (DC isolated from individual A), in the data set on Human dendritic cells [7] (DC isolated from individual B) and in the data set on Human dendritic cells [7] (DC isolated from individual C) was 1.0 fold each time.
